The text below walks through data of patent US11013228B2, “Method of processing allograft skin for transplantation, and cryopreserved allograft skin produced thereby” (CG BIO CO., LTD., priority 2009, dated 2021).

The subject of this assay is pig skin. The experiment in a line: TUNEL assay, cell death rate according to sucrose concentration in the cryoprotectant. It is filed as cell-based. The settings on record: for cell death rate, AVE: average of 6 samples. As for the experimental part:
Because human skin tissue harvested from a donor (cadaver) is prohibited from being used in an experiment, pig skin—which is the closest to human skin—is used for preparing ten (10) of both cryopreserved skins and glycerol-preserved skins according to the following methods of Example and Comparative Example. To investigate the change of the cell death rate according to the difference of sucrose concentration, the cryopreserved allograft skin was prepared by the same method as in the Example except that the sucrose concentration in the cryoprotectant was 5, 10, 15, 20, 25, 30, 35 and 40 wt %, and it was then analyzed by TUNEL assay. TUNEL assay was carried out by using an In Situ Cell Death Detection Kit, Fluorescein (Roche, Germany) according to the manufacturer's instructions, and 4′,6-diamidino-2-phenylindole (DAPI) was used as a fluorescent marker. The results of cell death rate are shown in the following Table 1, and represented in FIG. 6 as a graph.

Several values for one entry are separate records, joined by “and”; a condition that tells them apart may be missing. Identical values can stand only once.

`OC[C@H]1O[C@@](CO)(O[C@H]2O[C@H](CO)[C@@H](O)[C@H](O)[C@H]2O)[C@@H](O)[C@@H]1O` [Sucrose, sucrose]: the cell death rate entry is, setting by setting: (sucrose 25 to 40 wt % in the final concentration, Table 1 and FIG. 6) “quite low”; (sucrose conc. 5 wt % in cryoprotectant, individual samples n 1-6) 65% and 45% and 36% and 64% and 39% and 41%; (sucrose conc. 10 wt % in cryoprotectant, individual samples n 1-6) 26% and 49% and 55% and 57% and 56% and 41%; (sucrose conc. 15 wt % in cryoprotectant, individual samples n 1-6) 25% and 31% and 22% and 47% and 57% and 66%; (sucrose conc. 20 wt % in cryoprotectant, individual samples n 1-6) 43% and 35% and 21% and 22% and 23% and 68%; (sucrose conc. 25 wt % in cryoprotectant, individual samples n 1-6) 19% and 23% and 28% and 64% and 12% and 20%. Moreover, the cell death rate is 20% (2×) and 23% and 39% and 11% and 5% (sucrose conc. 30 wt % in cryoprotectant, individual samples n 1-6); 30% and 25% and 10% and 23% and 28% and 21% (sucrose conc. 35 wt % in cryoprotectant, individual samples n 1-6); 13% and 36% and 33% and 41% and 26% and 20% (sucrose conc. 40 wt % in cryoprotectant, individual samples n 1-6). For the same molecule, the “cell death rate, AVE” value was determined as 48% (sucrose conc. 5 wt % in cryoprotectant); 47% (sucrose conc. 10 wt % in cryoprotectant); 41% (sucrose conc. 15 wt % in cryoprotectant); 35% (sucrose conc. 20 wt % in cryoprotectant); 28% (sucrose conc. 25 wt % in cryoprotectant); 20% (sucrose conc. 30 wt % in cryoprotectant). Further, the “cell death rate, AVE” value reads like this: (sucrose conc. 35 wt % in cryoprotectant) 23%; (sucrose conc. 40 wt % in cryoprotectant) 28%.
